From patent US20020173538A1, “Method for sensitizing cancer cells to cancer therapies with a mevalonate-reducing compound” (priority 2000, published 2002)
Read-outs that look alike come from different tables or passages of the source.

How the values were obtained:
Hep 3B/T2 cells = experiment: Tumor growth of Hep 3B/T2 cells in nude mice; assay type: in vivo, BALB/c-nu/nu nude mice
Hep G2 cells = experiment: MTT cell viability assay, Hep G2 cells (serum-free DMEM); conditions: for IC50: Homo sapiens; for Cell viability (cell number): LOV 50 μM 48 hr
Text: (§1) Human hepatoma cell lines Hep G2 and Hep 3 were chosen as the in vitro models of hepatocytes and hepatoma, respectively.

[1] = as above; conditions: human, Hep G2 cells, Cell viability
Text: as §1

For `CC[C@H](C)C(=O)O[C@H]1C[C@@H](C)C=C2C=C[C@H](C)[C@H](CC[C@@H]3C[C@@H](O)CC(=O)O3)[C@H]21` [Lovastatin, lovastatin], the “percentage of inhibition of tumor size” value (Hep 3B/T2 cells; Cycle 1 (Day 42), LOV 37.5 mg/kg/day p.o. days 28-34 and 49-55 and/or taxol 120 μg/kg/2 day i.p. day 36, 38, 40, 57, 59, 61) was “(−43.6%”, the Tumor size (Hep 3B/T2 cells; Day 8, LOV 75 mg/kg/day p.o. days 8-14 and/or taxol 120 μg/kg/day i.p. days 15-19, n = 3) was 0.111 cm^3 and the Tumor size (Hep 3B/T2 cells; Day 11, LOV 75 mg/kg/day p.o. days 8-14 and/or taxol 120 μg/kg/day i.p. days 15-19, n = 3) was 0.048 cm^3. It also gave a Tumor size (Hep 3B/T2 cells; Day 17, LOV 75 mg/kg/day p.o. days 8-14 and/or taxol 120 μg/kg/day i.p. days 15-19, n = 3) of 0.050 cm^3, a Tumor size (Hep 3B/T2 cells; Day 26, LOV 75 mg/kg/day p.o. days 8-14 and/or taxol 120 μg/kg/day i.p. days 15-19, n = 3) of 0.121 cm^3 and a Tumor size (Hep 3B/T2 cells; Day 29, LOV 75 mg/kg/day p.o. days 8-14 and/or taxol 120 μg/kg/day i.p. days 15-19, n = 3) of 0.154 cm^3. The “Tumor size (1 × w^2 × 0.52 cm^3) Day 35” value (Hep 3B/T2 cells; Day 35 after inoculation, p.o. lovastatin 37.5 mg/kg/day (days 28-34, 49-55) and/or i.p. taxol 120 μg/kg/2 day (days 36, 38, 40, 57, 59, 61), mean ± SEM) was 0.200 cm^3, the “Tumor size (1 × w^2 × 0.52 cm^3) Day 38” value (Hep 3B/T2 cells; Day 38 after inoculation, p.o. lovastatin 37.5 mg/kg/day (days 28-34, 49-55) and/or i.p. taxol 120 μg/kg/2 day (days 36, 38, 40, 57, 59, 61), mean ± SEM) was 0.301 cm^3 and the “Tumor size (1 × w^2 × 0.52 cm^3) Day 42” value (Hep 3B/T2 cells; Day 42 after inoculation, p.o. lovastatin 37.5 mg/kg/day (days 28-34, 49-55) and/or i.p. taxol 120 μg/kg/2 day (days 36, 38, 40, 57, 59, 61), mean ± SEM) was 0.533 cm^3. The “Tumor size (1 × w^2 × 0.52 cm^3) Day 49” value (Hep 3B/T2 cells; Day 49 after inoculation, p.o. lovastatin 37.5 mg/kg/day (days 28-34, 49-55) and/or i.p. taxol 120 μg/kg/2 day (days 36, 38, 40, 57, 59, 61), mean ± SEM) was 0.665 cm^3, the “Tumor size (1 × w^2 × 0.52 cm^3) Day 56” value (Hep 3B/T2 cells; Day 56 after inoculation, p.o. lovastatin 37.5 mg/kg/day (days 28-34, 49-55) and/or i.p. taxol 120 μg/kg/2 day (days 36, 38, 40, 57, 59, 61), mean ± SEM) was 0.995 cm^3 and the “Tumor size (1 × w^2 × 0.52 cm^3) Day 63” value (Hep 3B/T2 cells; Day 63 after inoculation, p.o. lovastatin 37.5 mg/kg/day (days 28-34, 49-55) and/or i.p. taxol 120 μg/kg/2 day (days 36, 38, 40, 57, 59, 61), mean ± SEM) was 1.263 cm^3. The Tumor size (Hep 3B/T2 cells; end of one cycle of treatment, n=6 (FIG. 41)) was 2.24±2.38 cm^3, the IC50 (Hep G2 cells; HepG2, 48 h, read-out: IC50 (cell viability), 48 hr, Table 3) was 97.2 ± 2.1 µM and the IC50 (Hep G2 cells; HepG2, 48 h, read-out: IC50 (cell viability), 48 hr, Table 4) was 97.2 µM. For the same molecule, the IC50 (Hep G2 cells; HepG2, 48 h, read-out: IC50 of lovastatin (cell viability), 48 hr treatment) was 97.2 ± 2.1 µM, the IC50 (Hep G2 cells; HepG2, 72 h, read-out: IC50 (cell viability), 72 hr, Table 3) was 63.6 ± 3.7 µM and the IC50 (Hep G2 cells; HepG2, 72 h, read-out: IC50 (cell viability), 72 hr, Table 4) was 62.3 µM. The IC50 (Hep G2 cells; HepG2, 72 h, read-out: IC50 of lovastatin (cell viability), 72 hr treatment) was 62.3 ± 3.7 µM, the IC50 (Hep G2 cells; HepG2, 96 h, read-out: IC50 (cell viability), 96 hr) was 13.1 µM and the IC50 (Hep G2 cells; HepG2, 120 h, read-out: IC50 (cell viability), 120 hr) was 6.2 µM. The “Cell viability (cell number)” value (Hep G2 cells; then LOV 50 μM without MVA another 24 hr) was 10.6 ± 0.7^b 1 × 10^3 cells, the “Cell viability (cell number)” value (Hep G2 cells; then LOV 50 μM without MVA another 48 hr) was 3.6 ± 1.6^b 1 × 10^3 cells and the “Cell viability (cell number)” value (Hep G2 cells; then LOV 50 μM without MVA another 72 hr) was 1.7 ± 0.5^b 1 × 10^3 cells. It also gave a viability at 48 h, 1 μM ([1]; LOV 1 μM, 48 hr) of 91.8 ± 2.1%, a viability at 72 h, 1 μM ([1]; LOV 1 μM, 72 hr) of 88.7 ± 1.3% and a viability at 48 h, 2 μM ([1]; LOV 2 μM, 48 hr) of 90.7 ± 1.5%. The viability at 72 h, 2 μM ([1]; LOV 2 μM, 72 hr) was 86.2 ± 1.9%, the viability at 48 h, 5 μM ([1]; LOV 5 μM, 48 hr) was 87.2 ± 3.1% and the viability at 48 h, 5 μM ([1]; LOV 5 μM, 48 hr, Table 4) was 87.2 ± 3.1%. It also gave a viability at 72 h, 5 μM ([1]; LOV 5 μM, 72 hr) of 80.9 ± 4.4%, a viability at 72 h, 5 μM ([1]; LOV 5 μM, 72 hr, Table 4) of 80.9 ± 4.4% and a viability at 96 h, 5 μM ([1]; LOV 5 μM, 96 hr) of 63.2 ± 2%. For the same molecule, the viability at 120 h, 5 µM ([1]; LOV 5 μM, 120 hr) was 55.1 ± 5%, the viability at 48 h, 10 μM ([1]; LOV 10 μM, 48 hr) was 85.8 ± 2.7% and the viability at 48 h, 10 μM ([1]; LOV 10 μM, 48 hr, Table 4) was 85.8 ± 2.7%. For the same molecule, the viability at 72 h, 10 μM ([1]; LOV 10 μM, 72 hr) was 78.7 ± 5.3%, the viability at 72 h, 10 μM ([1]; LOV 10 μM, 72 hr, Table 4) was 78.7 ± 5.3% and the viability at 96 h, 10 μM ([1]; LOV 10 μM, 96 hr) was 55.1 ± 5%. It also gave a viability at 120 h, 10 µM ([1]; LOV 10 μM, 120 hr) of 33.8 ± 3.8%, a viability at 48 h, 20 μM ([1]; LOV 20 μM, 48 hr) of 79.9 ± 2.7% and a viability at 72 h, 20 μM ([1]; LOV 20 μM, 72 hr) of 75.3 ± 4.2%. It also gave a viability at 72 h, 50 μM ([1]; LOV 50 μM 48 hr, then LOV 50 μM without MVA another 24 hr) of 57.8 ± 6.2%, a viability at 96 h, 50 µM ([1]; LOV 50 μM 48 hr, then LOV 50 μM without MVA another 48 hr) of 12.7 ± 2.6% and a viability at 120 h, 50 µM ([1]; LOV 50 μM 48 hr, then LOV 50 μM without MVA another 72 hr) of 4 ± 0.6%. For the same molecule, the viability at 48 h, 50 μM ([1]; LOV 50 μM, 48 hr) was 73.1 ± 3.2%, the viability at 72 h, 50 μM ([1]; LOV 50 μM, 72 hr) was 58.2 ± 4.2% and the viability at 72 h, 1 μM ([1]; lovastatin 1 μM, 72 hr) was 88.7 ± 1.3%. For the same molecule, the viability at 72 h, 2 μM ([1]; lovastatin 2 μM, 72 hr) was 86.2 ± 1.9%, the viability at 48 h, 5 μM ([1]; lovastatin 5 μM 48 hr, then no CAPE 48 hr) was 75.2 ± 1.6% and the viability at 48 h, 5 μM ([1]; lovastatin 5 μM 48 hr, then no taxol 48 hr) was 85.8 ± 4.5%. The viability at 72 h, 5 μM ([1]; lovastatin 5 μM 72 hr, then no taxol 48 hr) was 81.3 ± 3.8%, the viability at 72 h, 5 μM ([1]; lovastatin 5 μM 72 hr, then no taxol 72 hr) was 67.2 ± 0.5% and the viability at 72 h, 5 μM ([1]; lovastatin 5 μM alone, 72 hr, Table 23) was 66.8 ± 1.5%. For the same molecule, the viability at 72 h, 5 μM ([1]; lovastatin 5 μM, 72 hr) was 80.9 ± 4.4%, the viability at 48 h, 10 μM ([1]; lovastatin 10 μM 48 hr, then no CAO 48 hr) was 75 ± 3.3% and the viability at 48 h, 10 μM ([1]; lovastatin 10 μM 48 hr, then no CAPE 48 hr) was 66.7 ± 2.4%. The viability at 10 µM ([1]; lovastatin 10 μM 48 hr, then no GL-M1 48 hr) was 76.9 ± 2.6%, the viability at 48 h, 10 μM ([1]; lovastatin 10 μM 48 hr, then no taxol 48 hr) was 69.1 ± 3.1% and the viability at 72 h, 10 μM ([1]; lovastatin 10 μM 72 hr, then no taxol 48 hr) was 54.7 ± 5.9%. For the same molecule, the viability at 72 hr, 10 μM ([1]; lovastatin 10 μM 72 hr, then no taxol 72 hr) was 48 ± 2.9% and the viability at 72 h, 10 μM ([1]; lovastatin 10 μM alone, 72 hr, Table 23) was 57.8 ± 11.2%.
